Here are results for two molecules from patent US6060046A, “Antifouling compositions” (Unisearch Limited, priority 1994, dated 2000).

Test [1] deals with cyprids of the cosmopolitan fouling barnacle Balanus amphitrite. Briefly: Inhibition of settlement of barnacle cyprid larvae, metabolites dissolved in water. In kind it is in vivo. The conditions noted are these: 24 hr, based on FIGS. 2 and 3. The procedure: Settlement assays were carried out using cyprids of the cosmopolitan fouling barnacle Balanus amphitrite. The methods used were similar to those used previously (Rittschof et al, 1994, Willemson 1994). Adult brood stock were maintained under controlled light (15 hr light: 9 hr dark) and temperature (28° C.) conditions and fed larvae of the brine shrimp Artemia salina and the diatom Skeletonema costatum. Recently spawned nauplii of B. amphitrite were collected and reared on Skeletonema costatum under the same conditions as adult stocks until reaching cyprid stage after four to five days. Cyprid larvae were subsequently filtered from the culture and maintained in filtered seawater at 5° C. for five days prior to use in settlement assays.
Assays used purified metabolites at concentrations ranging from 100 μg to 0.1 ng per millilitre. […]
Tests were conducted by adding 45-65 cyprids to petri-dishes (47 mm) containing five mls of either test solution, filtered seawater control, or DMSO control. […] The dishes were then rinsed and the percent settlement of cyprids was determined by counting settled and non settled larvae.
The effects of Delisea pulchra metabolites on the settlement of barnacle cyprid larvae, the growth of bacteria and the settlement and germination of algal spores were analysed in two ways. […]

A further test has as its system marine bacterium SW8. Briefly: Inhibition of bacterial growth, marine isolate SW8. Format: cell-based. The conditions noted are these: c = control. On the procedure: Assays to determine the antibacterial effect of Delisea metabolites used the marine isolate SW8 (Neu et al., 1991). […] Purified metabolites 1-4 were dissolved in ethyl acetate (10 mg/ml-10 μg/ml) and were added in volumes of 20 μl to sterilised McCartney bottles containing 19 mls of filter sterilised artificial seawater (ASW) medium supplemented with a trace vitamin and mineral solution (Schneider et al., 1994). Two reference compounds for antibacterial activity, the antibiotic gentamicin (Sigma)and a saturated copper (II) oxide solution, were also used in these tests. Following addition of metabolites, antibiotics or copper, the media was inoculated with SW8. The inoculum for the assay was taken from a continuous culture fermenter operating at a cell density of 10^7 cells/ml. The final concentration of metabolites and antibiotic tested ranged from 10 μg/ml to 10 ng/ml. Control bottles with media only, and media with 20 μl EtOAc added, were inoculated with SW8 and run concurrently with each experiment.
After mixing, 200 μl from each bottle was aseptically transferred to a well in a Nunc Tissue Culture plate (96 well). Plates were incubated aerobically at 30° C. with shaking. Growth was monitored by optical density (600 nm) every hour for 12 hours after which growth was monitored every four hours for a further 18 hours.
The effects of Delisea pulchra metabolites on the settlement of barnacle cyprid larvae, the growth of bacteria and the settlement and germination of algal spores were analysed in two ways. Firstly, we used Analysis of Variance (ANOVA) followed by Tukey's multiple comparison tests to determine which compounds, at which concentrations, had statistically significant effects on the test organisms. Analyses were done using the Statview II statistical package. These procedures enable us to determine the minimum concentration of a compound necessary to have some significant effect, and to look in a detailed way at variation in the effects of different compounds.

Turning to `O=S(=O)([O-])[O-].[Cu+2]` [CuSO4], the “EC50 + 95% conf. int. (50% settlement inhibition)” value in test [1] is reported as 0.40(0.25-0.77) μg/ml.

Take gentamicin: the “Compounds in order of increasing activity (growth inhibition)” value is reported as “gent c 4 2 1 3” in the test with marine bacterium SW8 (4 hours, 10 ng/mL); “gent 4 c 2 3 1” in the test with marine bacterium SW8 (4 hours, 100 ng/mL); “c gent 2 1 4 3” in the test on marine bacterium SW8 (4 hours, 1.0 μg/mL); “c 1 gent 2 3 4” in the test on marine bacterium SW8 (4 hours, 10 μg/mL); “gent c 2 4 1 3” in the test on marine bacterium SW8 (11.5 hours, 10 ng/mL); “gent 4 2 c 1 3” in the test on marine bacterium SW8 (11.5 hours, 100 ng/mL). In addition, the “Compounds in order of increasing activity (growth inhibition)” value with marine bacterium SW8 (11.5 hours, 1.0 μg/mL) is reported as “c gent 1 2 3 4”; in the test on marine bacterium SW8 (11.5 hours, 10 μg/mL), “c 1 2 gent 3 4”; in the test on marine bacterium SW8 (third panel, time not given, 10 ng/mL), “gent 4 1 c 3 2”; in the test on marine bacterium SW8 (third panel, time not given, 100 ng/mL) it was “gent 4 3 2 c 1”; in the test with marine bacterium SW8 (third panel, time not given, 1.0 μg/mL), 2 c 1 3 4 gent; in the test with marine bacterium SW8 (third panel, time not given, 10 μg/mL), “c 1 2 gent 3 4”.
